Where two headings read alike, the source gives them in different places.
Legend:
Format in all cases: in vivo
[1] = tested on: Echinochloa crus-galli (ECHCG); test: Post-emergence efficacy, Method B; conditions: 360 h, read-out: Control of weed species after post-emergence application, ECHCG (100=total damage to plant; 0=no damage to plant)
Method: (§1) An “instant formulation”, known as the IF50, containing 50 g/L of the “technical” (i.e. unformulated) active ingredient was prepared by dissolving the active ingredient in a mixture of organic solvents and emulsifier, details of which are provided in the table. This IF50 was then mixed with a small, variable amount of acetone to aid dissolution, before addition of an aqueous solution of 1% v/v ammonium sulphate+1% v/v Empicol ESC70 (Sodium lauryl ether sulphate) adjuvant, as the aqueous diluent, to form an aqueous spray solution which contains a predetermined concentration of the active ingredient (which varies depending on the application rate of the active ingredient to the plants).
(§2) Composition of the mixture of organic solvents and emulsifier used as a base for the instant formulation.
(§3) This aqueous spray solution was then sprayed onto the plants, after about 12 days' cultivation. The plants were grown from seeds sown in standard soil, placed in a glasshouse under controlled conditions (at 24/18° C. or 20/16° C., day/night; 16 hours light; 65% humidity). After spray application the plants were then grown on in a glasshouse under the same conditions and watered twice daily. After 15 days the test was evaluated (100=total damage to plant; 0=no damage to plant).
(§4) Ipomoea hederacea (IPOHE), Euphorbia heterophylla (EPHHL), Chenopodium album (CHEAL), 20 Amaranthus retroflexus (AMARE), Lolium perenne (LOLPE), Digitaria sanguinalis (DIGSA), Eleusine indica (ELEIN), Echinochloa crus-galli (ECHCG), Setaria faberi (SETFA)

[2] = tested on: Ipomoea hederacea (IPOHE); test: Post-emergence efficacy, Method B; conditions: 360 h, read-out: Control of weed species after post-emergence application, IPOHE (100=total damage to plant; 0=no damage to plant)
Method: as §1, §2, §3, §4

[3] = tested on: Chenopodium album (CHEAL); test: Post-emergence efficacy, Method B; conditions: 360 h, read-out: Control of weed species after post-emergence application, CHEAL (100=total damage to plant; 0=no damage to plant)
Method: as §1, §2, §3, §4

[4] = tested on: Amaranthus retroflexus (AMARE); test: Post-emergence efficacy, Method B; conditions: 360 h, Application Rate 1000 g/Ha, evaluated after 15 days, read-out: Control of weed species after post-emergence application, AMARE (100=total damage to plant; 0=no damage to plant)
Method: as §1, §2, §3, §4

[5] = tested on: Digitaria sanguinalis (DIGSA); test: Post-emergence efficacy, Method B; conditions: 360 h, Application Rate 1000 g/Ha, evaluated after 15 days, read-out: Control of weed species after post-emergence application, DIGSA (100=total damage to plant; 0=no damage to plant)
Method: as §1, §2, §3, §4

Lolium perenne (LOLPE) [6] = test: Post-emergence efficacy, Method B; conditions: 360 h, read-out: Control of weed species after post-emergence application, LOLPE (100=total damage to plant; 0=no damage to plant)
Method: as §1, §2, §3, §4

Setaria faberi (SETFA) [7] = test: Post-emergence efficacy, Method B; conditions: 360 h, Application Rate 1000 g/Ha, evaluated after 15 days, read-out: Control of weed species after post-emergence application, SETFA (100=total damage to plant; 0=no damage to plant)
Method: as §1, §2, §3, §4

Eleusine indica (ELEIN) [8] = test: Post-emergence efficacy, Method B; conditions: 360 h, read-out: Control of weed species after post-emergence application, ELEIN (100=total damage to plant; 0=no damage to plant)
Method: as §1, §2, §3, §4

[9] = tested on: Euphorbia heterophylla (EPHHL); test: Post-emergence efficacy, Method B; conditions: 360 h, Application Rate 1000 g/Ha, evaluated after 15 days, read-out: Control of weed species after post-emergence application, EPHHL (100=total damage to plant; 0=no damage to plant)
Method: as §1, §2, §3, §4

[10] = tested on: Echinochloa crus-galli (ECHCG); test: Post-emergence efficacy, Method A; conditions: Application rate 500 g/Ha, evaluated after 13 days; for Control of weed species ECHCG after post-emergence application (100=total damage to plant; 0=no damage to plant): Method A
How it was run: (§5)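 Sprayed at 14 days after sowing with an emulsifiable IF50-based formulation in aqueous surfactant/ammonium sulphate diluent, the plants were kept in a 24/16 °C glasshouse with 14 h light. Visual herbicidal damage was recorded after 13 days on a 0–100 scale.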

[11] = tested on: Ipomoea hederacea (IPOHE); test: Post-emergence efficacy, Method A; conditions: Application rate 500 g/Ha, evaluated after 13 days; for Control of weed species IPOHE after post-emergence application (100=total damage to plant; 0=no damage to plant): Method A
How it was run: as §5

Eleusine indica (ELEIN) [12] = test: Post-emergence efficacy, Method A; conditions: Application rate 500 g/Ha, evaluated after 13 days; for Control of weed species ELEIN after post-emergence application (100=total damage to plant; 0=no damage to plant): Method A
How it was run: as §5

[13] = tested on: Chenopodium album (CHEAL); test: Post-emergence efficacy, Method A; conditions: Application rate 500 g/Ha, evaluated after 13 days; for Control of weed species CHEAL after post-emergence application (100=total damage to plant; 0=no damage to plant): Method A
How it was run: as §5

[14] = tested on: Euphorbia heterophylla (EPHHL); test: Post-emergence efficacy, Method A; conditions: Application rate 500 g/Ha, evaluated after 13 days; for Control of weed species EPHHL after post-emergence application (100=total damage to plant; 0=no damage to plant): Method A
How it was run: as §5

[15] = tested on: Digitaria sanguinalis (DIGSA); test: Post-emergence efficacy, Method A; conditions: Application rate 500 g/Ha, evaluated after 13 days; for Control of weed species DIGSA after post-emergence application (100=total damage to plant; 0=no damage to plant): Method A
How it was run: as §5

Lolium perenne (LOLPE) [16] = test: Post-emergence efficacy, Method A; conditions: Application rate 500 g/Ha, evaluated after 13 days; for Control of weed species LOLPE after post-emergence application (100=total damage to plant; 0=no damage to plant): Method A
How it was run: as §5

[17] = tested on: Amaranthus palmeri (AMAPA); test: Post-emergence efficacy, Method A; conditions: Application rate 500 g/Ha, evaluated after 13 days; for Control of weed species AMAPA after post-emergence application (100=total damage to plant; 0=no damage to plant): Method A
How it was run: as §5

Setaria faberi (SETFA) [18] = test: Post-emergence efficacy, Method A; conditions: Application rate 500 g/Ha, evaluated after 13 days; for Control of weed species SETFA after post-emergence application (100=total damage to plant; 0=no damage to plant): Method A
How it was run: as §5

[19] = Method B, Application Rate 1000 g/Ha, evaluated after 15 days
[20] = 100=total damage to plant, 0=no damage

Row | SMILES | pest or weed control at 1000 g/ha [4] [%] | pest or weed control at 1000 g/ha [5] [%] | pest or weed control at 1000 g/ha (Setaria faberi (SETFA) [7]) [%] | Control of weed species ECHCG after post-emergence application (100=total damage to plant; 0=no damage to plant) [10] | Control of weed species IPOHE after post-emergence application (100=total damage to plant; 0=no damage to plant) [11] | Control of weed species ELEIN after post-emergence application (100=total damage to plant; 0=no damage to plant) (Eleusine indica (ELEIN) [12]) | Control of weed species CHEAL after post-emergence application (100=total damage to plant; 0=no damage to plant) [13] | Control of weed species EPHHL after post-emergence application (100=total damage to plant; 0=no damage to plant) [14] | Control of weed species DIGSA after post-emergence application (100=total damage to plant; 0=no damage to plant) [15] | Control of weed species LOLPE after post-emergence application (100=total damage to plant; 0=no damage to plant) (Lolium perenne (LOLPE) [16]) | Control of weed species AMAPA after post-emergence application (100=total damage to plant; 0=no damage to plant) [17] | Control of weed species SETFA after post-emergence application (100=total damage to plant; 0=no damage to plant) (Setaria faberi (SETFA) [18]) | further results
1 | N#C[N-]C(=O)CC[n+]1ccc(-c2ncccn2)cn1 [Compound A226] | 100 | 100 | 70 | – | – | – | – | – | – | – | – | – | pest or weed control at 1000 g/ha [1, 19]: 100%; pest or weed control at 1000 g/ha [2, 19]: 100%; pest or weed control at 1000 g/ha [3, 19]: 100%; pest or weed control at 1000 g/ha (Lolium perenne (LOLPE) [6]; [19]): 70%
2 | O=S(=O)([O-])CC[n+]1ccc(-c2cccnn2)cn1 [Compound A213, 2-(4-pyridazin-1-ium-3-ylpyridazin-1-ium-1-yl)ethanesulfonate chloride] | 100 | 100 | 100 | – | – | – | – | – | – | – | – | – | pest or weed control at 1000 g/ha [1]: 100%; pest or weed control at 1000 g/ha [2]: 80%; pest or weed control at 1000 g/ha (Eleusine indica (ELEIN) [8]): 100%; pest or weed control at 1000 g/ha [3]: 80%; pest or weed control at 1000 g/ha [9]: 100%; pest or weed control at 1000 g/ha (Lolium perenne (LOLPE) [6]): 90%
3 | N[C@H](CC[n+]1ccc(-c2ncccn2)cn1)C(=O)O [Compound A207, [(1R)-1-carboxy-3-(4-pyrimidin-2-ylpyridazin-1-ium-1-yl)propyl]ammonium 2,2,2-trifluoroacetate] | 100 | 90 | 100 | – | – | – | – | – | – | – | – | – | pest or weed control at 1000 g/ha [1]: 100%; pest or weed control at 1000 g/ha [2]: 100%; pest or weed control at 1000 g/ha (Eleusine indica (ELEIN) [8]): 100%; pest or weed control at 1000 g/ha [3]: 90%; pest or weed control at 1000 g/ha [9]: 70%; pest or weed control at 1000 g/ha (Lolium perenne (LOLPE) [6]): 20%
4 | CCOP(=O)(CC[n+]1ccc(-c2ncccn2)cn1)OCC.O=C([O-])C(F)(F)F [Compound A124, 1-(2-diethoxyphosphorylethyl)-4-pyrimidin-2-yl-pyridazin-1-ium] | – | – | – | 0 | 0 | 0 | 0 | 0 | 10 | 0 | 0 | 20 | –
5 | O=S(=O)([O-])CC[n+]1ccc(-c2cccnc2)cn1 [Compound A179] | – | – | – | – | – | – | – | – | – | – | – | – | Control of weed species after post-emergence application, ECHCG [10, 20]: 40; Control of weed species after post-emergence application, IPOHE [11, 20]: 20; Control of weed species after post-emergence application, ELEIN (Eleusine indica (ELEIN) [12]; [20]): 50; Control of weed species after post-emergence application, CHEAL [13, 20]: 30; Control of weed species after post-emergence application, EPHHL [14, 20]: 60; Control of weed species after post-emergence application, DIGSA [15, 20]: 50; Control of weed species after post-emergence application, LOLPE (Lolium perenne (LOLPE) [16]; [20]): 10; Control of weed species after post-emergence application, AMAPA [17, 20]: 30; Control of weed species after post-emergence application, SETFA (Setaria faberi (SETFA) [18]; [20]): 60
6 | COC(=O)C[n+]1ccc(-c2ncccn2)cn1.[Br-] [Compound A2, methyl 2-(4-pyrimidin-2-ylpyridazin-1-ium-1-yl)acetate bromide] | – | – | – | 50 | 10 | 30 | 20 | 90 | 40 | 0 | 60 | 80 | –
7 | COc1cc(C)nc(-c2cc[n+](CCS(=O)(=O)[O-])nc2)n1 [Compound A94] | – | – | – | 30 | 30 | 20 | 90 | 40 | 30 | 20 | 70 | 40 | –
8 | Cc1n[n+](CCS(=O)(=O)[O-])ccc1-c1ncccn1 [Compound A88, 2-(3-methyl-4-pyrimidin-2-yl-pyridazin-1-ium-1-yl)ethanesulfonate] | – | – | – | 60 | 30 | 90 | 70 | 60 | 90 | 60 | 100 | 70 | –
